Data reported in patent US9920295B2, “Bioreactor for isolation of rare cells and methods of use” (The Trustees of the University of Pennsylvania, priority 2012, dated 2018).
Like-named read-outs stand apart in the source and are kept apart here. One block for each compound: values may come before it.

Key:
[1] = tested on: CD34+-derived cells (HSC, MPP, CPP); assay: AHR antagonist dose-response on HSC/P subpopulation number; format: cell-based, human
Procedure: Freshly purified bone marrow-derived human CD34^+ cells were obtained from either the Penn Xenograft Core Facility or AllCells (Emeryville, Calif.). Cells from at least 20 different donors were used in this study. Purity of the samples (>98%) was confirmed by flow cytometry with monoclonal antibody against human CD34. All experiments were performed in HSC expansion media (StemLine, Sigma) supplemented with 1× antibiotics, 20% BIT 9500 Serum Substitute (StemCell Technologies), 2 mM […] (Gibco) and the following human recombinant cytokines: SCF (100 ng/ml) and Tpo (100 ng/ml). In some occasions, the media was also supplemented by G-CSF (100 ng/ml), epidermal growth factor (EGF, 100 ng/ml), transforming growth factor beta 1 (TGF-beta1, 100 ng/ml), erythropoietin (EPO, 1 U/ml) and interleukin-3 (IL-3, 10 ng/ml). All cytokines were purchased from R&D Systems. After cells were cultured for 4 days, they were treated with different doses of cellular contractility inhibitors, including (±)-Blebbistatin (Bleb) (EMD Biosciences) and/or CH-223191 (Sigma) for indicated durations of up to 3 days. Cells were cultured at 37° C. in 5% CO2.
Surface marker analysis for HSC/Ps was done on either a LSR II flow cytometer or FACSCalibur (Becton Dickinson). […] Cells isolated from the bone marrow stained for 1 hr with APC anti-mouse CD47 (miap301, AbD Serotec), FITC anti-human CD47 (BD Biosciences), and PE anti-human CD11b, PE anti-human CD19 (both from BD Biosciences), or PE anti-human Glycophorin A (Invitrogen). Plts and RBCs were analyzed by staining with PE anti-mouse CD41 (eBioscience) and FITC anti-human CD41 (eBioscience) for 20 min, followed by analysis on FACSCalibur on log forward and side scatter scales.

CD34+-derived cells = assay: Apoptosis by cleaved caspase-3 intracellular flow cytometry and Annexin-V; format: cell-based, human; conditions: G-CSF 100 ng/ml; CH-223191 500 nM (4n fraction)
Procedure: (§1) Cells were fixed with 4% paraformaldehyde in PBS for 10 min, washed with PBS and resuspended in 0.1% saponin in HBSS (staining medium). The samples were then stained with antibodies against cytoplasmic antigens, including NMM-IIA (Sigma), NMM-IIB, phospho-NMM-IIA and caspase-3 (all from Cell Signaling Technology) for 30 min at room temperature. In some cases, cells were concurrently stained with PE anti-CD34 or anti-human CD38 for subpopulation analysis. Cells were then washed and stained with anti-rabbit or mouse secondary antibodies conjugated with Alexa 647 (Invitrogen) for 30 min, followed by analysis on FACSCalibur.

CD34+ cells = conditions: data from Boitano et al. (2010), cited from earlier work; for EC50: fitted, read-out: CD34+ cell number EC50
[2] = tested on: BM CD34+-derived cells (CD41+ MK); assay: Ploidy analysis of CD34+-derived cells treated with contractility inhibitors (flow cytometry); format: cell-based, human; conditions: for EC50: read-out: MK polyploid cell number EC50
Procedure: (§2) Fresh purified bone marrow (BM)-derived humanCD34^+ cells were obtained from either the Penn Xenograft Core Facility or AllCells. Cells from at least 10 different donors were used in this study. Purity of the samples (>98%) was confirmed by flow cytometry with monoclonal antibody against human CD34 conjugated to phycoerythrin (PE). All experiments were performed in hematopoietic stem cell (HSC) expansion media (StemLine-II; Sigma) supplemented with 1× antibiotics, and the following human recombinant cytokines SCF (100 ng/mL) and Tpo (100 ng/mL). In some occasions, the media was also supplemented by G-CSF (100 ng/mL). All cytokines were purchased from R&D Systems. After cells were cultured for 4 days, they were treated with different doses of cellular contractility inhibitors, including (±)-blebbistatin (EMDBiosciences), reversine, ML-7, and Y-27632 (Sigma) for indicated durations of up to 3 days. Unfortunately, longer exposure to drug proves toxic even to polyploidy cells under the present culture conditions. Cells were then resuspended in PBS/2% FBS medium and subjected to ploidy analysis: cells were stained with CD41-FITC (BD Biosciences) at room temperature for 30 min, followed by Hoechst 33342 at 37° C. for 30 min. Then cells were stained with Annexin-V-PE (BD Biosciences) in the Annexin-V staining medium, followed by addition of 7-AAD. Stained cells were subjected to flow cytometric analysis (LSR-II; BD Biosciences): only viable cells (7-AAD^− and Hoechst 33342^+) were analyzed for ploidy. Cells with the DNA content of 8 N or higher were considered polyploid. To quantify absolute number of polyploid cells, viable cell number was counted before flow cytometry by Trypan blue exclusion, and this number was multiplied by percentages of each DNA compartment and subpopulations. Each multiplied number was then normalized by initial cell input number before drug treatment in culture.

αIIbβ3 = target: T1, αIIbβ3 (Homo sapiens, UniProt P05106+P08514); assay: Platelet activation assay, PAC-1 binding; format: cell-based; conditions: 10 μM, thrombin 1 U/mL
T1 construct: endogenous in cells; host or cells: platelet-like fragments from megakaryocytes cultured from human bone-marrow CD34+ cells
Procedure: For platelet-activation assays, platelet-sided fraction isolated from either MK culture or NSG blood was resuspended in Tyrode's buffer supplemented with Mg^2+ and Ca^2+, and incubated with indicated agonists for 15 min at 37° C., followed by staining with FITC-conjugated anti-human P-selectin or PAC-1 antibody (BD Bioscience), APC-conjugated anti-human CD41, and in the case of xenograft samples, PE-conjugated anti-mouse CD41 for 15 min at room temperature, followed by fixation with 1.5% paraformaldehyde. Antibody-stained samples were then analyzed by flow cytometry. Platelet number was evaluated by mixing each sample with a defined number (˜10,000 beads per sample) of APC-conjugated beads (BD Bioscience). The number of platelets per sample was evaluated by: number of CD41^+ events/number of APC-bead events multiplied by total known number of APC-bead added per sample.

NMM-IIA pS1943 = assay: pS1943 of NMM-IIA by phospho-specific flow cytometry; format: cell-based, human; conditions: under cytokine stimulation (SCF and Tpo)
Procedure: as §1

CD34+-derived MKs = assay: Polyploid MK numbers on collagen-coated gels of different elasticity; format: cell-based, human
Procedure: as §2, with “Cells were then resuspended in PBS/2% FBS medium and subjected to ploidy analysis: cells were stained with CD41-FITC (BD Biosciences) at room temperature for 30 min, followed by Hoechst 33342 at 37° C. for 30 min. Then cells were stained with Annexin-V-PE (BD Biosciences) in the Annexin-V staining medium, followed by addition of 7-AAD.” left out, “Cells with the DNA content of 8 N or higher were considered polyploid.” left out, “Each multiplied number was then normalized by initial cell input number before drug treatment in culture.” left out

[3] = Homo sapiens, dose-response, n≥3 donors

T1 sequence (P08514 32-887 limits assumed): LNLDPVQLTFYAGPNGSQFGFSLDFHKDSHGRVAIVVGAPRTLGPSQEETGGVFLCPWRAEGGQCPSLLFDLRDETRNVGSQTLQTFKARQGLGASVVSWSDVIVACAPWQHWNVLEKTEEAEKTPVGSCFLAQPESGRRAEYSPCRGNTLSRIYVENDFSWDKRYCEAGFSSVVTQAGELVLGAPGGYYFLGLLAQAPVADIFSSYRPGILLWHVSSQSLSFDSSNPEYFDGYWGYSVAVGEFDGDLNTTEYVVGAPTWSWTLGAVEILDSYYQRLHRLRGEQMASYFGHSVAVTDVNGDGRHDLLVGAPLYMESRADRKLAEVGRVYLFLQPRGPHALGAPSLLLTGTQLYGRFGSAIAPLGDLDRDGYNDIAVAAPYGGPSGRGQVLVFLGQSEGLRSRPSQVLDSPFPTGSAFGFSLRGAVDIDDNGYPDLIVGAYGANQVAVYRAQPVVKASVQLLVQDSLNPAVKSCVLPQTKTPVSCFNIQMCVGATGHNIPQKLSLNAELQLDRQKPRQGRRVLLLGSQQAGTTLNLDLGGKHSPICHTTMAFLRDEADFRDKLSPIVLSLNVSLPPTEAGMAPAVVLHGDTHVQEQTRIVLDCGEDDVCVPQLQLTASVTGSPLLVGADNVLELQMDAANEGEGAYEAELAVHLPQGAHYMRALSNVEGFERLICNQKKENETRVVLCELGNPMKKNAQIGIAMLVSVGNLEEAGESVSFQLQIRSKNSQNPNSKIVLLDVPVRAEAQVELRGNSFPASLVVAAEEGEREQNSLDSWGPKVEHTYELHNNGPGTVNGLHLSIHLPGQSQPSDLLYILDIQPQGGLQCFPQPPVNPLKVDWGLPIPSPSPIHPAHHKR
T1 sequence (P08514 891-1039 partner limits assumed): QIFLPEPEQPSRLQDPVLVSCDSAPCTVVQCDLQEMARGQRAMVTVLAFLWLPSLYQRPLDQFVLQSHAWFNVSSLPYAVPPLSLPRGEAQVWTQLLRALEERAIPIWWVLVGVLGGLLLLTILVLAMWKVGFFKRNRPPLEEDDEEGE
T1 sequence (P05106 27-788): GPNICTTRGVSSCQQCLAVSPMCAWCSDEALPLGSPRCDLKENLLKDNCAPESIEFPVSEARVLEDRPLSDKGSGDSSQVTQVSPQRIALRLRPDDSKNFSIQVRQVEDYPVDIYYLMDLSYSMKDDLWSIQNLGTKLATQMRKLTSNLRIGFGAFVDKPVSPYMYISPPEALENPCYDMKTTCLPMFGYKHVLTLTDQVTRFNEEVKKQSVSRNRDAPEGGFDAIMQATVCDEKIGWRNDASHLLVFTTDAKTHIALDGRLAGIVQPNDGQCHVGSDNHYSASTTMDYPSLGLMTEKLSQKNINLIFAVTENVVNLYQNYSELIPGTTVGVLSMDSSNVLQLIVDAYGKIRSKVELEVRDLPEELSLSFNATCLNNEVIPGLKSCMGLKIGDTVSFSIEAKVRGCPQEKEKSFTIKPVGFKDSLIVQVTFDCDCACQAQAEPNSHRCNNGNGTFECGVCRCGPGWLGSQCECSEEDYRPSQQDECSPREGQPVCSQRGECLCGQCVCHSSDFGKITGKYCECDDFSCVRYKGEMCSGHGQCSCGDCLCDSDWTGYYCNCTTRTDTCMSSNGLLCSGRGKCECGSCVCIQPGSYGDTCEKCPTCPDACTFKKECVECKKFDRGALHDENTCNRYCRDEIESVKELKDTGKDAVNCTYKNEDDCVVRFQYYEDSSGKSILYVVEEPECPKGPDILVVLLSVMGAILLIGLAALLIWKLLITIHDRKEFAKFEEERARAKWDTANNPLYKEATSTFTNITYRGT

Compound: Cc1ccccc1N=Nc1ccc(NC(=O)c2ccnn2C)c(C)c1 [CH-223191]
HSC/P ratio ([1]; dual drug treatment with Bleb): almost doubled
EC50 ([1]; untreated and Bleb, for both, read-out: CPP number EC50): 750 nM
EC50 ([1]; untreated and Bleb, for both, read-out: MPP number EC50): 114 nM
EC50 ([1]; with 20 μM Bleb, 3 days, read-out: HSC number EC50): 211 nM
EC50 ([1]; without Bleb, 3 days, read-out: HSC number EC50): 158 nM
viability of untreated CD34+ and CD34− cells (CD34+-derived cells): improves the viability
EC50 (CD34+ cells): 74 nM

Compound: O=S(=O)(c1cccc2c(I)cccc12)N1CCCNCC1 [ML7, ML-7]
IC50 ([2]; 2 N, read-out: MK cell number in 2 N IC50): 500 nM
IC50 ([2]; 4 N, read-out: MK cell number in 4 N IC50): 500 nM
IC50 ([2]; dose-response, n≥3 donors, read-out: MK polyploid cell number IC50): 1040 nM

Compound: CC(C)n1cnc2c(NCCc3ccc(O)cc3)nc(-c3csc4ccccc34)nc21 [SR1]
EC50 (CD34+ cells): 47.4 nM

Compound: O=c1cc(-c2ccccc2)oc2c1ccc1ccccc12 [a-napthoflavone, α-napthoflavone]
EC50 (CD34+ cells): 177 nM
concentration showing toxic effect (CD34+ cells): ≥ 1000 nM

Compound: EGF: epidermal growth factor, human recombinant cytokine (NSDSECPLSHDGYCLHDGVCMYIEALDKYACNCVVGYIGERCQYRDLKWWELR; UniProt P01133 971-1023, looked up)
effect on pS1943 level (NMM-IIA pS1943): does not show a significant effect

Compound: TGF-beta 1: transforming growth factor beta 1, human recombinant cytokine
effect on pS1943 level (NMM-IIA pS1943): inhibits the reduction of pS1943 level

Now from value to compound:

inhibition of agonist-induced PAC-1 binding (αIIbβ3): inhibits as expected
Compound: CCCCS(=O)(=O)N[C@@H](Cc1ccc(OCCCCC2CCNCC2)cc1)C(=O)O [Tirofiban]

EC50 [2, 3]: 140 nM
Compound: C[C@@H](N)[C@H]1CC[C@H](C(=O)Nc2ccncc2)CC1 [Y-27632]

EC50 [2, 3]: 500 nM
IC50 ([2]; Homo sapiens, read-out: MK cell number in 2 N IC50): 260 nM
IC50 ([2]; Homo sapiens, read-out: MK cell number in 4 N IC50): 500 nM
Compound: c1nc2nc(Nc3ccc(N4CCOCC4)cc3)nc(NC3CCCCC3)c2[nH]1 [reversine]

polyploid MK numbers on stiff gels, IC50 in collagen concentration (CD34+-derived MKs; blebbistatin-treated cells): ~0.3 ng/cm^2
polyploid MK numbers on stiff gels, EC50 in collagen concentration (CD34+-derived MKs; untreated cells): ~200 ng/cm^2
Compound: collagen
